# Where “and” joins values, the source holds several entries; their conditions need not be identical. Equal values may be shown once.
# Test system: 922993-354-T-J3-PDC complex spheroids, viability
# Assay: Anticancer human tumor 922993-354-T-J3-PDC patient-derived endometrial carcinoma cell line growth inhibition [GQUAD]
# Details: for viability, T/C: stronger effect = lower value
# Excerpt: DNA G-quadruplex Stabilizer Agents in Combinations in Complex Spheroids
# A high-throughput screen of multi-cell type tumor spheroids was designed to identify active combinations of DNA G-quadruplex stabilizer agents and targeted small molecules. Complex spheroids include a stromal component modeled by human endothelial cells (HUVEC) and fibroblasts modeled by human mesenchymal stem cells (MSCs). The concentration ranges selected for each drug and investigational agent were based upon clinically achievable concentrations if the clinical Cmax of the agent was known.
# Compounds. The drugs and investigational agents: pidnarulex (CX-5461; NSC782164), APTO-253 (NSC789042), BRACO-19 (NSC847499), peposertib (NSC802822), ceralasertib (NSC780249), elimusertib (NSC800525), camonsertib (NSC841442), AZD-1390 (NSC803789), olaparib (NSC753686), talazoparib (NSC767125), ART-558 (NSC835418), sotorasib (NSC818433), MRTX-1133 (NSC836407), SN-38 (NSC673596), topotecan (NSC609699), etoposide (NSC141540), doxorubicin (NSC123127), gemcitabine (NSC613327), 5-fluorouracil (NSC19893), paclitaxel (NSC125973), vemurafenib (NSC761431), panobinostat (NSC761190), R-306465 (JNJ-16241199; NSC773264), adavosertib (NSC754352), TP-3654 (NSC805149), carboplatin (NSC241240), KSQ-4279 (NSC840948), and staurosporine (NSC755774) were obtained from the National Cancer Institute (NCI) Developmental Therapeutics Program Chemical Repository (34). The FDA-approved anticancer drug set is available from the NCI Developmental Therapeutics Program. […] The stock solutions were prepared in dimethyl sulfoxide (DMSO, Sigma-Aldrich, St. Louis, MO, cat. D2650) at 800-fold the tested concentration and stored at -70 degrees C prior to their use. All drugs and investigational agents were tested over a range starting from a high concentration at or near the clinical Cmax and decreasing in half-log increments. If the clinical Cmax for an agent had not been determined, the highest concentration tested was 10 microM.
# 2.3 Cell Culture. All cells were maintained in an incubator at 37 degrees C and 5% CO2 with 95% humidity. The PDC lines were cultured according to standard operating procedures established by the NCI PDMR. All PDCs were thawed and cultured in Matrigel-coated flasks prepared with a working solution of 1X Ham's F-12 nutrient mix, without supplementation (Invitrogen, cat. 11765054), 100 U/mL penicillin-streptomycin (Invitrogen, cat. 15140122), and 2.5% Matrigel (Corning Inc., cat. 354248) for the first three passages. The 857933-349-R-J2-PDC line was cultured in 6C/Colon 1B media, which includes advanced DMEM/F-12 (Thermo Fisher Scientific, cat. 12634028), 10 mM HEPES (Thermo Fisher Scientific, cat. 15630080), 1X GlutaMAX supplement (Thermo Fisher Scientific, cat. 35050061), 0.1 mg/mL primocin (InvivoGen, cat. ant-pm-2), 10% defined fetal bovine serum, heat inactivated (HyClone Laboratories Inc., cat. SH30070.03HI), 50% L-WRN conditioned media (ATCC, cat. CRL-3276), 1.25 mM N-Acetyl-L-cysteine (Sigma-Aldrich, cat. A9165), 10 mM nicotinamide (Sigma-Aldrich, cat. N0636), 1X B-27 supplement (Thermo Fisher Scientific, cat. 17504044), 1X N-2 supplement (Thermo Fisher Scientific, cat. 17502048), 10 microM Y-27632 dihydrochloride (Tocris Bioscience, cat. 1254), and 50 ng/mL human EGF recombinant protein (Thermo Fisher Scientific, cat. PHG0311). The 485176-168-R4-J1-PDC line was cultured in Panc media, which includes all 6C/Colon 1B media components plus 100 ng/mL human FGF-10 (Thermo Fisher Scientific, cat. 100-26), 500 nM SB-431542 (Selleckchem, cat. S1067), and gastrin (Tocris, cat. 3006).
# […]
# 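Also: spheroids exposed to compounds for seven days.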
# 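For viability, T/C in this document: 100% = DMSO vehicle control viability.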
smiles,measurement,setting,value
COc1ccc([C@@H](O)c2cc(-c3ncnc4cc(N5CCOCC5)ccc34)c(F)cc2Cl)nn1,"viability, T/C",compound 0.0316 µM,93.2% and 109% and 98.5%
same,"viability, T/C",compound 0.1 µM,99.4% and 61.7% and 94.8%
same,"viability, T/C",compound 0.316 µM,103% and 87% and 92.8%
same,"viability, T/C",compound 1 µM,93.4% and 83.4% and 86.5%
same,"viability, T/C",compound 3.16 µM,92% and 94.4% and 85%
same,"viability, T/C",compound 10 µM,69.3% and 69% and 52.9%
same,IC50,curve of compound,> 10000 nM
CC[C@@]1(O)C(=O)OCc2c1cc1n(c2=O)Cc2cc3c(CN(C)C)c(O)ccc3nc2-1 + Cc1[nH]c2ccc(F)cc2c1-c1nc2c3cccnc3c3ncccc3c2[nH]1,IC50,"curve of first compound, second compound 0.0316 µM",> 316 nM
same,IC50,"curve of first compound, second compound 0.1 µM",> 316 nM
same,IC50,"curve of first compound, second compound 0.316 µM",> 316 nM
same,IC50,"curve of first compound, second compound 1 µM",307 nM
same,IC50,"curve of first compound, second compound 3.16 µM",> 316 nM
same,IC50,"curve of first compound, second compound 10 µM",282 nM
same,"viability, T/C","second compound 0.0316 µM, first compound 0.000999 µM",91.8%
same,"viability, T/C","second compound 0.0316 µM, first compound 0.00316 µM",95.9%
same,"viability, T/C","second compound 0.0316 µM, first compound 0.00999 µM",109%
same,"viability, T/C","second compound 0.0316 µM, first compound 0.0316 µM",105%
same,"viability, T/C","second compound 0.0316 µM, first compound 0.0999 µM",82.4%
same,"viability, T/C","second compound 0.0316 µM, first compound 0.316 µM",57.1%
same,"viability, T/C","second compound 0.1 µM, first compound 0.000999 µM",94%
same,"viability, T/C","second compound 0.1 µM, first compound 0.00316 µM",98.1%
same,"viability, T/C","second compound 0.1 µM, first compound 0.00999 µM",79.3%
same,"viability, T/C","second compound 0.1 µM, first compound 0.0316 µM",104%
same,"viability, T/C","second compound 0.1 µM, first compound 0.0999 µM",77%
same,"viability, T/C","second compound 0.1 µM, first compound 0.316 µM",55.6%
same,"viability, T/C","second compound 0.316 µM, first compound 0.000999 µM",125%
same,"viability, T/C","second compound 0.316 µM, first compound 0.00316 µM",84.3%
same,"viability, T/C","second compound 0.316 µM, first compound 0.00999 µM",103%
same,"viability, T/C","second compound 0.316 µM, first compound 0.0316 µM",92.1%
same,"viability, T/C","second compound 0.316 µM, first compound 0.0999 µM",97.5%
same,"viability, T/C","second compound 0.316 µM, first compound 0.316 µM",52.4%
same,"viability, T/C","second compound 1 µM, first compound 0.000999 µM",97.1%
same,"viability, T/C","second compound 1 µM, first compound 0.00316 µM",106%
same,"viability, T/C","second compound 1 µM, first compound 0.00999 µM",89.8%
same,"viability, T/C","second compound 1 µM, first compound 0.0316 µM",104%
same,"viability, T/C","second compound 1 µM, first compound 0.0999 µM",90.6%
same,"viability, T/C","second compound 1 µM, first compound 0.316 µM",48.7%
same,"viability, T/C","second compound 3.16 µM, first compound 0.000999 µM",74.5%
same,"viability, T/C","second compound 3.16 µM, first compound 0.00316 µM",108%
same,"viability, T/C","second compound 3.16 µM, first compound 0.00999 µM",93.1%
same,"viability, T/C","second compound 3.16 µM, first compound 0.0316 µM",93.3%
same,"viability, T/C","second compound 3.16 µM, first compound 0.0999 µM",89.5%
same,"viability, T/C","second compound 3.16 µM, first compound 0.316 µM",67.4%
same,"viability, T/C","second compound 10 µM, first compound 0.000999 µM",134%
same,"viability, T/C","second compound 10 µM, first compound 0.00316 µM",91.1%
same,"viability, T/C","second compound 10 µM, first compound 0.00999 µM",109%
same,"viability, T/C","second compound 10 µM, first compound 0.0316 µM",97.2%
same,"viability, T/C","second compound 10 µM, first compound 0.0999 µM",74.6%
same,"viability, T/C","second compound 10 µM, first compound 0.316 µM",45.2%
CCCS(=O)(=O)Nc1ccc(F)c(C(=O)c2c[nH]c3ncc(-c4ccc(Cl)cc4)cc23)c1F,"viability, T/C",compound 0.0316 µM,101% and 91.3% and 97.1%
same,"viability, T/C",compound 0.1 µM,81% and 90.5% and 83.1%
same,"viability, T/C",compound 0.316 µM,99.1% and 89.8% and 101%
same,"viability, T/C",compound 1 µM,87.5% and 81% and 76%
same,"viability, T/C",compound 3.16 µM,78.5% and 68.7% and 87.7%
same,"viability, T/C",compound 10 µM,37.7% and 68.9% and 71%
same,IC50,curve of compound,7090 nM and > 10000 nM
CCc1c2c(nc3ccc(O)cc13)-c1cc3c(c(=O)n1C2)COC(=O)[C@]3(O)CC,"viability, T/C",compound 0.000999 µM,87% and 104% and 96.5%
same,"viability, T/C",compound 0.00316 µM,71.4% and 69.9% and 67.3%
same,"viability, T/C",compound 0.00999 µM,48% and 31.8% and 48.8%
same,"viability, T/C",compound 0.0316 µM,18.4% and 10.6% and 23.2%
same,"viability, T/C",compound 0.0999 µM,24.3% and 11.3% and 29.4%
same,"viability, T/C",compound 0.316 µM,24.9% and 13.8% and 31.8%
same,IC50,curve of compound,8.01 nM and 5.66 nM and 7.43 nM

# Source: PubChem BioAssay AID2060489 (Molecular Pharmacology Branch, DTP, NCI, 2025)
